Measured values from article PMC11638965, “Leveraging Dual-Ligase Recruitment to Enhance Protein Degradation via a Heterotrivalent Proteolysis Targeting Chimera” (Journal of the American Chemical Society, 2024).
Several values for one entry are separate records, joined by “and”; a condition that tells them apart may be missing. Equal values may be shown once. Read-outs that look alike come from different tables or passages of the source.

Experiments:
[1] = target: BRD4 (Homo sapiens, UniProt O60885); assay: Live cell kinetic HiBiT degradation assay, HiBiT-BRD4 HEK293 cells (parental, CRBN KO, VHL KO); format: cell-based; conditions: for λmax BRD4 (degradation rate): HiBiT-BRD4 knock-in HEK293 cells
Outline: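 Endogenous N-terminal HiBiT-BRD4 HEK293 cells stably expressing LgBiT (parental, CRBN KO, VHL KO) in CO2-independent medium with Endurazine, pre-equilibrated 3 h at 37 °C. Luminescence read every 7 min for 24 h after PROTAC addition (threefold series), normalized to pre-read and DMSO. Dmax = lowest reading; rate from one-phase decay; Dmax50 from Dmax-vs-concentration fit.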

[2] = tested on: RKO WT cells; assay: cells; format: cell-based, human; conditions: for EC50: Homo sapiens
[3] = HiBiT-BRD4 CRISPR knock-in HEK293 cells, live cell kinetic degradation, 24 h, read-out: Dmax 50 BRD4
[4] = WT RKO, 316 pM to 10 μM, n = 3 (Table S4), read-out: EC50 RKO
[5] = 72 h, 316 pM to 10 μM, 3 days, n = 3 (Figures 5 and 8C, Table S5), read-out: EC50 RKO WT

EC50 [1, 3]	λmax BRD4 (degradation rate) [1]	EC50 [2, 4]	fold less Dmax 50 for BRD4 degradation in CRBN KO than in parent HiBiT-BRD4 cells ([1]; CRBN KO vs parental)	λmax (HiBiT-BRD4: CRBN KO) ([1]; HiBiT-BRD4 HEK293 CRBN KO cells (Figure 9))	EC50 ([1]; HiBiT-BRD4 HEK293 CRBN KO cells, 5 pM to 3 μM (Figure 9), read-out: Dmax 50 (HiBiT-BRD4: CRBN KO))	λmax (HiBiT-BRD4: VHL KO) ([1]; HiBiT-BRD4 HEK293 VHL KO cells (Figure 9))	EC50 ([1]; HiBiT-BRD4 HEK293 VHL KO cells, 5 pM to 3 μM (Figure 9), read-out: Dmax 50 (HiBiT-BRD4: VHL KO))	λmax (HiBiT-BRD4: Parental) ([1]; HiBiT-BRD4 HEK293 parental cells (Figure 9))	fold less Dmax 50 for BRD4 degradation in VHL KO than in parent HiBiT-BRD4 cells ([1]; VHL KO vs parental)	EC50 [2, 5]	EC50 ([2]; 72 h, 500 pM to 10 μM, 3 days (Figure 10, Table S6), read-out: EC50 RKO WT)	EC50 ([2]; RKO WT, 316 pM to 10 μM, n = 6, combination: dBET6 and MZ1 each from 5 μM (Table S7), read-out: EC50 RKO)	treatment concentrations with observable hook-effect ([1]; HiBiT-BRD4 HEK293 cells)	Dmax ([1]; HiBiT-BRD4 HEK293 cells, read-out: final Dmax less than for 26 and 27)	Structure (SMILES)	cytotoxicity compared with 1:1 mixture of dBET6 and MZ1 (in words) ([2]; human, 3 days)	BRD4 degradation rate (in words) ([1]; HiBiT-BRD4 HEK293 cells (Figure S4))
3 nM	2.16 h⁻¹	151 nM													Cc1ncsc1-c1ccc([C@H](C)NC(=O)[C@@H]2C[C@@H](O)CN2C(=O)[C@@H](NC(=O)COCC(C)(COCCOCCOCCNc2cccc3c2C(=O)N(C2CCC(=O)NC2=O)C3=O)COCCOCCOCCOC(=O)C[C@@H]2N=C(c3ccc(Cl)cc3)c3c(sc(C)c3C)-n3c(C)nnc32)C(C)(C)C)cc1 (mixture of isomers) [AB3066 (24), (17S)-11-((2-(2-(2-((2-(2,6-dioxopiperidin-3-yl)-1,3-dioxoisoindolin-4-yl)amino)ethoxy)ethoxy)ethoxy)methyl)-17-((2S,4R)-4-hydroxy-2-(((S)-1-(4-(4-methylthiazol-5-yl)phenyl)ethyl)carbamoyl)pyrrolidine-1-carbonyl)-11,18,18-trimethyl-15-oxo-3,6,9,13-tetraoxa-16-azanonadecyl 2-((S)-4-(4-chlorophenyl)-2,3,9-trimethyl-6H-thieno[3,2-f][1,2,4]triazolo[4,3-a][1,4]diazepin-6-yl)acetate]		
0.6 nM and 0.64 nM	2.68 h⁻¹	97.5 nM	60 fold	1.0 h⁻¹	38 nM	1.2 h⁻¹	23 nM	2.3 h⁻¹	40 fold	111 nM	73 nM	49 nM			Cc1ncsc1-c1ccc([C@H](C)NC(=O)[C@@H]2C[C@@H](O)CN2C(=O)[C@@H](NC(=O)COCC(C)(COCCOCCOCCNc2cc3c(cc2F)C(=O)N(C2CCC(=O)NC2=O)C3=O)COCCOCCOCCOC(=O)C[C@@H]2N=C(c3ccc(Cl)cc3)c3c(sc(C)c3C)-n3c(C)nnc32)C(C)(C)C)cc1 (mixture of isomers) [AB3067 (27), (17S)-11-((2-(2-(2-((2-(2,6-dioxopiperidin-3-yl)-6-fluoro-1,3-dioxoisoindolin-5-yl)amino)ethoxy)ethoxy)ethoxy)methyl)-17-((2S,4R)-4-hydroxy-2-(((S)-1-(4-(4-methylthiazol-5-yl)phenyl)ethyl)carbamoyl)pyrrolidine-1-carbonyl)-11,18,18-trimethyl-15-oxo-3,6,9,13-tetraoxa-16-azanonadecyl 2-((S)-4-(4-chlorophenyl)-2,3,9-trimethyl-6H-thieno[3,2-f][1,2,4]triazolo[4,3-a][1,4]diazepin-6-yl)acetate]	more cytoxic than the 1:1 mixture of dBET6 and MZ1	
1.1 nM										33 nM			≥ 333 nM	> 10%	Cc1ncsc1-c1ccc(CNC(=O)[C@@H]2C[C@@H](O)CN2C(=O)[C@@H](NC(=O)COCC(COCCOCCOCCNc2cc3c(cc2F)C(=O)N(C2CCC(=O)NC2=O)C3=O)(COCCOCCOCCOC(=O)C[C@@H]2N=C(c3ccc(Cl)cc3)c3c(sc(C)c3C)-n3c(C)nnc32)COCCOCCOCCOC(=O)C[C@@H]2N=C(c3ccc(Cl)cc3)c3c(sc(C)c3C)-n3c(C)nnc32)C(C)(C)C)cc1 (mixture of isomers) [AB3124 (86)]		remarkably slow compared to the rapid degradation mediated by 27
